Source: patent US20260092061A1, “COMPOUNDS FOR TARGETED PROTEIN DEGRADATION” (Amphista Therapeutics Limited, priority 2022, published 2026)

Biological target: T1, BRD9 (Homo sapiens, UniProt Q9H8M2)
T1 sequence (Q9H8M2 1-597): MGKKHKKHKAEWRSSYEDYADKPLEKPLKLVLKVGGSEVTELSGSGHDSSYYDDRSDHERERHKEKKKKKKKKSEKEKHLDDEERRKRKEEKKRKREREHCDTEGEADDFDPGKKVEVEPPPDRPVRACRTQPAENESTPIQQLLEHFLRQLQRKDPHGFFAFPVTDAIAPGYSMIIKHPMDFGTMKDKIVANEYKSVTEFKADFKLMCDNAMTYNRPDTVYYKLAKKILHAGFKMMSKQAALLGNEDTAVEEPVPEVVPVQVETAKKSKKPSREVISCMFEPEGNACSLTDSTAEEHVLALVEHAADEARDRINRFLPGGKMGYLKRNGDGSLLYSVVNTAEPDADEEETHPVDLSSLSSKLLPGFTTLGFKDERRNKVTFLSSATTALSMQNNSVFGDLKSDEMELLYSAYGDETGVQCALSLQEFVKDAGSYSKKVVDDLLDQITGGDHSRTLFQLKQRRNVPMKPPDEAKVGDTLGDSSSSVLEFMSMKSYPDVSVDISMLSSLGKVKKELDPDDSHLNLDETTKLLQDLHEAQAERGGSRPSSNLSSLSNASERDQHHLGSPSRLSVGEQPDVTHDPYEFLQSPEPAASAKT
Test: Degradation of BRD9 (IF), immunofluorescence in MV4-11 cells, 24 hours (Assay Protocol 2)
Assay type: cell-based
Design: A suspension of MV4-11 cells (ATCC CRL-9591) was prepared; host or cells: MV4-11
Conditions: BRD9 degradation; for DC50: Assay protocol 2, read-out: DC50; for Dmax: MV4-11, Assay protocol 2, read-out: Dmax
How it was run: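 MV4-11 cells treated with compound 24 h at 37° C., then fixed, permeabilised and immunostained for BRD9 (anti-BRD9 E4Q3F, Alexa 647 secondary, Hoechst counterstain). High-content imaging quantified nuclear BRD9 signal; % BRD9 remaining normalised to DMSO and 100 nM CFT-8634 controls.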

**Q.** COc1cc(-c2cn(C)c(=O)c(C)c2C)cc(OC)c1CN1CCN(Cc2cccc3c2CCN(C(=O)/C(C#N)=C/C2(C)CCOC2)C3C)C2(CC2)C1 (mixture of isomers) [Compound B174, (E/Z)-2-(5-((7-(2,6-dimethoxy-4-(1,4,5-trimethyl-6-oxo-1,6-dihydropyridin-3-yl)benzyl)-4,7-diazaspiro[2.5]octan-4-yl)methyl)-1-methyl-1,2,3,4-tetrahydroisoquinoline-2-carbonyl)-3-(3-methyltetrahydrofuran-3-yl)acrylonitrile] was tested. Which DC50 did it give?
**A.** The DC50 was less than 1.25 nM.

**Q.** What about the Dmax of the same compound?
**A.** The Dmax was greater than 75%.

**Q.** What does the source list for COc1cc(-c2cn(C)c(=O)c(C)c2C)cc(OC)c1CN1CCC(O)(Cc2cccc3c2CCN(C(=O)/C(C#N)=C/C(C)(C)C)C3C)CC1 (mixture of isomers) [Compound B175, (E/Z)-2-(5-((1-(2,6-dimethoxy-4-(1,4,5-trimethyl-6-oxo-1,6-dihydropyridin-3-yl)benzyl)-4-hydroxypiperidin-4-yl)methyl)-1-methyl-1,2,3,4-tetrahydroisoquinoline-2-carbonyl)-4,4-dimethylpent-2-enenitrile]?
**A.** DC50: 25 to 1000 nM; Dmax: 40 to 70%

**Q.** For COc1cc(-c2cn(C)c(=O)c(C)c2C)cc(OC)c1CN1C2CC1CN(C(=O)/C(C#N)=C/c1cccc(C(F)(F)F)n1)C2 (mixture of isomers) [Compound B188, (E/Z)-2-(6-(2,6-dimethoxy-4-(1,4,5-trimethyl-6-oxo-1,6-dihydropyridin-3-yl)benzyl)-3,6-diazabicyclo[3.1.1]heptane-3-carbonyl)-3-(6-(trifluoromethyl)pyridin-2-yl)acrylonitrile], which DC50 is on record?
**A.** Its DC50 is less than 1.25 nM.

**Q.** And the Dmax?
**A.** Its Dmax is greater than 75%.

**Q.** Which results are given for COc1cc(-c2cn(C)c(=O)c(C)c2C)cc(OC)c1CN1C2CC1CN(C(=O)/C(C#N)=C/C1(F)CC1)C2 (mixture of isomers) [Compound B189, (E/Z)-2-(6-(2,6-dimethoxy-4-(1,4,5-trimethyl-6-oxo-1,6-dihydropyridin-3-yl)benzyl)-3,6-diazabicyclo[3.1.1]heptane-3-carbonyl)-3-(1-fluorocyclopropyl)acrylonitrile]?
**A.** DC50: 1.25 to 10 nM; Dmax: > 75%

**Q.** For COc1cc(-c2cn(C)c(=O)c(C)c2C)cc(OC)c1CN1C[C@@H](C)N(C(=O)/C(C#N)=C/C(C)(C)C)C[C@@H]1C (mixture of isomers) [Compound B190, (E/Z)-2-((2R,5S)-4-(2,6-dimethoxy-4-(1,4,5-trimethyl-6-oxo-1,6-dihydropyridin-3-yl)benzyl)-2,6-dimethylpiperazine-1-carbonyl)-4,4-dimethylpent-2-enenitrile], which DC50 is on record?
**A.** The DC50 was 25 to 1000 nM.

**Q.** What about the Dmax of the same compound?
**A.** The Dmax was 40 to 70%.

**Q.** COc1cc(-c2cn(C)c(=O)c(C)c2C)cc(OC)c1CN1CCN(Cc2cccc3c2CCN(C(=O)C(C#N)=CC24CC(OC)(C2)C4)C3C)C2(CC2)C1 (mixture of isomers) [Compound B191, (E/Z)-2-(5-((7-(2,6-dimethoxy-4-(1,4,5-trimethyl-6-oxo-1,6-dihydropyridin-3-yl)benzyl)-4,7-diazaspiro[2.5]octan-4-yl)methyl)-1-methyl-1,2,3,4-tetrahydroisoquinoline-2-carbonyl)-3-(3-methoxybicyclo[1.1.1]pentan-1-yl)acrylonitrile] was tested. Which DC50 did it give?
**A.** The DC50 was less than 1.25 nM.

**Q.** And the Dmax?
**A.** Its Dmax is greater than 75%.

**Q.** Which results are given for COc1cc(-c2cn(C)c(=O)c(C)c2C)cc(OC)c1CN1CCN(Cc2ccc3c(c2)[C@@H](C)N(C(=O)/C(C#N)=C/C(C)(C)C)CC3)CC12CC2 (mixture of isomers) [Compound B199, (E/Z)-2-(7-((4-(2,6-dimethoxy-4-(1,4,5-trimethyl-6-oxo-1,6-dihydropyridin-3yl)benzyl)-4,7-diazaspiro[2.5]octan-7-yl)methyl)-1-methyl-1,2,3,4-tetrahydroisoquinoline-2-carbonyl)-4,4-dimethylpent-2-enenitrile]?
**A.** DC50: 25 to 1000 nM; Dmax: 40 to 70%

**Q.** COc1cc(-c2cn(C)c(=O)c(C)c2C)cc(OC)c1CN1CCN(Cc2ccc3c(c2)[C@H](C)N(C(=O)/C(C#N)=C/C(C)(C)C)CC3)CC12CC2 (mixture of isomers) [Compound B200, (E/Z)-2-(7-((4-(2,6-dimethoxy-4-(1,4,5-trimethyl-6-oxo-1,6-dihydropyridin-3yl)benzyl)-4,7-diazaspiro[2.5]octan-7-yl)methyl)-1-methyl-1,2,3,4-tetrahydroisoquinoline-2-carbonyl)-4,4-dimethylpent-2-enenitrile] was tested. Which DC50 did it give?
**A.** Its DC50 is 1.25 to 10 nM.

**Q.** What about the Dmax of the same compound?
**A.** The Dmax was greater than 75%.

**Q.** Which DC50 does the source give for COc1cc(-c2cn(C)c(=O)c(C)c2C)cc(OC)c1CN1CCN(Cc2cccc3c2CCN(C(=O)/C(C#N)=C/C(C)(C)C)C3C(C)C)CC1 (mixture of isomers) [Compound C7, (E/Z)-2-(5-((4-(2,6-dimethoxy-4-(1,4,5-trimethyl-6-oxo-1,6-dihydropyridin-3-yl)benzyl)piperazin-1-yl)methyl)-1-isopropyl-1,2,3,4-tetrahydroisoquinoline-2-carbonyl)-4,4-dimethylpent-2-enenitrile] here?
**A.** Its DC50 is less than 1.25 nM.

**Q.** And the Dmax?
**A.** The Dmax was greater than 75%.

**Q.** With COc1cc(-c2cn(C)c(=O)c(C)c2C)cc(OC)c1CN1CCN(Cc2cccc3c2CCN(C(=O)/C(C#N)=C/C(C)(C)C)C3C(C)C)C2(CC2)C1 (mixture of isomers) [Compound C8, (E/Z)-2-(5-((7-(2,6-dimethoxy-4-(1,4,5-trimethyl-6-oxo-1,6-dihydropyridin-3-yl)benzyl)-4,7-diazaspiro[2.5]octan-4-yl)methyl)-1-isopropyl-1,2,3,4-tetrahydroisoquinoline-2-carbonyl)-4,4-dimethylpent-2-enenitrile] as the compound, how does the DC50 read?
**A.** Its DC50 is less than 1.25 nM.

**Q.** And the Dmax?
**A.** The Dmax was greater than 75%.

**Q.** Which results are given for COc1cc(-c2cn(C)c(=O)c(C)c2C)cc(OC)c1CN1CCN(Cc2cccc3c2CCN(C(=O)/C(C#N)=C/C(C)(C)C)C3C(C)C)CC12CC2 (mixture of isomers) [Compound C10, (E/Z)-2-(5-((4-(2,6-dimethoxy-4-(1,4,5-trimethyl-6-oxo-1,6-dihydropyridin-3-yl)benzyl)-4,7-diazspiro[2.5-]octan-7-yl)methyl)-1-isopropyl-1,2,3,4-tetrahydroisoquinoline-2-carbonyl)-4,4-dimethylpent-2-enenitrile]?
**A.** DC50: 1.25 to 10 nM; Dmax: > 75%

**Q.** COc1cc(-c2cn(C)c(=O)c(C)c2C)cc(OC)c1CN1CCCN(Cc2cccc3c2CCN(C(=O)/C(C#N)=C/C(C)(C)C)C3C(C)C)CC1 (mixture of isomers) [Compound C11, (E/Z)-2-(5-((4-(2,6-dimethoxy-4-(1,4,5-trimethyl-6-oxo-1,6-dihydropyridin-3-yl)benzyl)-1,4-diazepan-1-yl)methyl)-1-isopropyl-1,2,3,4-tetrahydroisoquinoline-2-carbonyl)-4,4-dimethylpent-2-enenitrile] was tested. Which DC50 did it give?
**A.** The DC50 was 1.25 to 10 nM.

**Q.** What about the Dmax of the same compound?
**A.** Its Dmax is 40 to 70%.

**Q.** What does the source list for COc1cc(-c2cn(C)c(=O)c(C)c2C)cc(OC)c1CN1C[C@H](C)N(Cc2cccc3c2CCN(C(=O)/C(C#N)=C/C(C)(C)C)C3C(C)C)C[C@H]1C (mixture of isomers) [Compound C12, (E/Z)-2-(5-(((2S,5R)-4-(2,6-dimethoxy-4-(1,4,5-trimethyl-6-oxo-1,6-dihydropyridin-3-yl)benzyl)-2,5-dimethylpiperazin-1-yl)methyl)-1-isopropyl-1,2,3,4-tetrahydroisoquinoline-2-carbonyl)-4,4-dimethylpent-2-enenitrile]?
**A.** DC50: 25 to 1000 nM; Dmax: 70 to 75%

**Q.** For COc1cc(-c2cn(C)c(=O)c(C)c2C)cc(OC)c1CN1CCN(Cc2cccc3c2CCN(C(=O)/C(C#N)=C/C(C)(C)C)C3C(F)F)C2(CC2)C1 (mixture of isomers) [Compound C13], which DC50 is on record?
**A.** The DC50 was less than 1.25 nM.

**Q.** And the Dmax?
**A.** Its Dmax is greater than 75%.

**Q.** For COc1cc(-c2cn(C)c(=O)c(C)c2C)cc(OC)c1CN1CCN(Cc2cccc3c2CCN(C(=O)/C(C#N)=C/C(C)(C)C)C3C(C)C)[C@@H](C)C1 (mixture of isomers) [Compound C14, (E/Z)-2-(5-(((S)-4-(2,6-dimethoxy-4-(1,4,5-trimethyl-6-oxo-1,6-dihydropyridin-3-yl)benzyl)-2-methylpiperazin-1-yl)methyl)-1-isopropyl-1,2,3,4-tetrahydroisoquinoline-2-carbonyl)-4,4-dimethylpent-2-enenitrile], which DC50 is on record?
**A.** Its DC50 is 25 to 1000 nM.

**Q.** What about the Dmax of the same compound?
**A.** Its Dmax is greater than 75%.

**Q.** For CCC1c2cccc(CN3CCN(Cc4c(OC)cc(-c5cn(C)c(=O)c(C)c5C)cc4OC)CC34CC4)c2CCN1C(=O)/C(C#N)=C/C(C)(C)C (mixture of isomers) [Compound C15, (E/Z)-2-(5-((7-(2,6-dimethoxy-4-(1,4,5-trimethyl-6-oxo-1,6-dihydropyridin-3-yl)benzyl)-4,7-diazaspiro[2.5]octan-4-yl)methyl)-1-ethyl-1,2,3,4-tetrahydroisoquinoline-2-carbonyl)-4,4-dimethylpent-2-enenitrile], which DC50 is on record?
**A.** The DC50 was less than 1.25 nM.

**Q.** What about the Dmax of the same compound?
**A.** The Dmax was greater than 75%.
